For data set [1], the target named is T1, aryl hydrocarbon receptor (AhR) (Homo sapiens, UniProt P35869).
T1 construct: Human hepatocellular carcinoma (HepG2) cell lines were acquired from Abcam; host or cells: HepG2 (human hepatocellular carcinoma)
T1 sequence (P35869 11-848): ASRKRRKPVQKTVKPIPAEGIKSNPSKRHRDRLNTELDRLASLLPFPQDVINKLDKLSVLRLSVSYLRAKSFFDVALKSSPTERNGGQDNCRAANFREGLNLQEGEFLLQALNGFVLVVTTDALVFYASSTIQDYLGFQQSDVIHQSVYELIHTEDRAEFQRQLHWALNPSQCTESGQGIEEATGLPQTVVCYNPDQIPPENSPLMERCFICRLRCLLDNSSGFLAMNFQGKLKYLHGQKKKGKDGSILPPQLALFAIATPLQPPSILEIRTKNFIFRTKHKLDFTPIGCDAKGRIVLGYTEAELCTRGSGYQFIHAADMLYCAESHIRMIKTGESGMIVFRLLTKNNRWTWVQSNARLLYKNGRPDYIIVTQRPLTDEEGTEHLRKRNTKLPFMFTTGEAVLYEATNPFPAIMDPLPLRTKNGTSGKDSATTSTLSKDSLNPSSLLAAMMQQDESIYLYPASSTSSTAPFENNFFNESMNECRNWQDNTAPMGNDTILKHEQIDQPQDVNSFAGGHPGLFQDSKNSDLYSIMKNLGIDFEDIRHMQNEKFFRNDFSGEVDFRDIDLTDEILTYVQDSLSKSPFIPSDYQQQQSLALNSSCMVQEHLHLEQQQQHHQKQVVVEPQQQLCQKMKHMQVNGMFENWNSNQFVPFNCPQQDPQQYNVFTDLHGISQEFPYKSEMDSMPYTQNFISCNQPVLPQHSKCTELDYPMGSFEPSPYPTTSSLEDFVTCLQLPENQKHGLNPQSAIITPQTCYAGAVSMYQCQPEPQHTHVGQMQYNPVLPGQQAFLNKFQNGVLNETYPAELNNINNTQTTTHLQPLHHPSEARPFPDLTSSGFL
Kind of data set: AhR antagonism: CYP1A1 mRNA levels in HepG2 cells by RT-qPCR. The class given is cell-based. The settings on record: HepG2, 4 h incubation, 2^-ΔΔCt, normalized to DMSO control. From the text: To this aim, we decided to measure the activity of ezutromid and the analogues against ezutromid's primary target, which has recently been identified as the aryl hydrocarbon receptor (AhR)[40]. This nuclear transcription factor plays a pivotal role in the metabolism of exogenous small molecules by targeting nuclear DNA to upregulate the expression of several isoforms of CYP enzymes responsible for the phase I metabolism of drugs, such as CYP1A isoforms (Fig. 5a). Therefore, AhR inhibition can be monitored by measuring the relative expression of these genes, with lower CYP1A1 mRNA levels being proportional to AhR antagonism.  Fig. 5 AhR antagonism and biological evaluation of BCHep analogues. a, A schematic representation of how ezutromid antagonizes AhR preventing its translocation into the nuclei and its subsequent upregulation of CYP1A1 enzyme. The inhibition of AhR can therefore be evaluated as a decrease in CYP1A1 expression. b, The evaluation of 50a-c as AhR antagonists compared with ezutromid. Data have been obtained by quantitative RT-qPCR and analysed using the 2^-ΔΔCt method. Values obtained have been normalized to control (DMSO 1%) and presented as mean + s.e.m. The IC50 values were determined from biological triplicates, except for compounds 50c and ezutromid, which were measured from duplicate experimental replicates.

Data set [2] is described as follows: Metabolic stability in mouse liver microsomes (MLM) with or without ANF. Type of data set: in vitro ADME. The settings on record: for half-life at 1 μM / microsomal CLint at 1 μM: CD-1, mouse, liver microsomes, 1 μM compound; for microsomal CLint at 1 μM: read-out: CLint(mic). As to the method:
Finally, we subjected the most promising derivatives to metabolic stability studies in mouse liver microsomes (MLMs), a validated model for understanding phase I metabolism of drugs (Table 1). To investigate whether the analogues would be susceptible to CYPs metabolism, we repeated these tests in the presence of 3 μM α-naphthoflavone (ANF). ANF is a well-known inhibitor of CYP1A enzymes, which is responsible for the CYP oxidative metabolism of naphthalene ring in ezutromid. […] These findings support the strategy that BCHep substitution mitigates the metabolic liabilities associated with ezutromid, by both preserving metabolic stability and avoiding CYP1A-mediated metabolism. [table] page 148: Fig.S178. […] Data have been obtained by RT-qPCR, and analysed using the 2-∆∆Ct method. Values obtained have been normalized to control (DMSO 1%), and presented as Mean + SEM (n=4). Statistical analysis was performed using the Ordinary One-way ANOVA followed by Dunnett’s multiple comparisons test against Vehicle Control: **: p < 0.005; ****: p < 0.0001 (grey). Metabolic stability Metabolic stability of compounds was assessed in Mouse Liver Microsomes (MLM) by WuxiAppTech (Shangai, China). Briefly, ACN solutions of test compounds ( 50a-c, i.a concentration 1μM) were dispensed in duplicate in a 96-well plate using an Apricot automation workstation. A solution of MLM (CD-1 Mouse, RILD, Cat. number LM-XS-02M) in PBS, with or without ANF, was added to each compound and plates were incubated at 37°C for 10 minutes. Reactions were then initiated by adding NADPH (i.a. 1mM, 0.5mM MgCl2) an d […] performed by adding stop solution before activating the reaction). NADPH -independent metabolism was assessed for each condition by replacing NADPH solution with PBS b uffer. Phenacetine, diclofenac and propafenone were used as controls. After proper incubation time, reaction was stopped by addition of ice -cold ACN and the plates were sealed, shaken and centrifuged at 1800 x g and 4°C for 20 minutes. The supernatant was then subjected to LC/MS-MS analysis for residual drug quantitation using 250 nM tolbutamide and 250 nM labetalol as internal standards. Half-life (t1/2) and CLint (Intrinsic clearance) were calculated using standard pharmacokinetic calculations based on the decay of drug concentration over time. […] The test compound 50b at 10 µM was incubated with liver microsomes in the presence of NADPH at […] The positive control, 7-ethoxycoumarin (7-EC) at 10 µM, was run concurrently to 147 (1 picture or pasted object on this page, not shown here)

Data set [3] in a line: Kinetic solubility assay in phosphate buffer. The class given is physicochemical. The settings on record: aqueous buffer, kinetic from dmso stock, 50 mM PB (pH 7.4), room temperature. On the procedure:
A 50 mM phosphate buffer (pH 7.4) was prepared by mixing 50 mM Na₂HPO₄ (3.549 g in 500 mL H₂O, pH ≈ 9.4) and 50 mM NaH ₂PO₄ (3.000 g in 500 mL H₂O, pH ≈ 4.5). To obtain the working buffer, 15 mL of Na₂HPO₄ solution was transferred into a 50 mL tube and adjusted to pH 7.4 ± 0.05 with 50 mM NaH₂PO₄. For solubility determination, 10 µL of compound stock solution was added to each well of a 96 -well plate, followed by 490 µL of buffer. Samples were vortexed for 2 min, shaken at 70 x g for 24 h at room temperature, and then centrifuged at 25 °C for 10 min (1800 x g). Supernatants were filtered through MultiScreen® Solvinert plates (Millipore/Merck) by centrifugation (≥ 5 min) and collected into a fresh 96 -well plate. Filtrate concentrations were quantified by LC-UV using an ACQUITY UPLC BEH C18 (1.7 µm, 50 mm) column with Mobile Phase A (0.1% TFA, 5 mM NH ₄OAc in H₂O/ACN 95:5 v/v) and Mobile Phase B (0.1% TFA, 5 mM NH ₄OAc in H₂O/ACN 5:95 v/v). […]
Compound ID Batch Media Kinetic Solubility Kinetic Solubility

Data set [4] can be described thus: MetID of 50b in liver microsomes (LC-UV-MS). The class given is in vitro ADME, human. On the procedure: Fig.S178. Evaluation of 50a-c as AhR antagonists compared to Ezutromid. Data have been obtained by RT-qPCR, and analysed using the 2-∆∆Ct method. Values obtained have been normalized to control (DMSO 1%), and presented as Mean + SEM (n=4). Statistical analysis was performed using the Ordinary One-way ANOVA followed by Dunnett’s multiple comparisons test against Vehicle Control: **: p < 0.005; ****: p < 0.0001 (grey).
Metabolic stability of compounds was assessed in Mouse Liver Microsomes (MLM) by WuxiAppTech (Shangai, China). Briefly, ACN solutions of test compounds ( 50a-c, i.a concentration 1μM) were dispensed in duplicate in a 96-well plate using an Apricot automation workstation. […] NADPH -independent metabolism was assessed for each condition by replacing NADPH solution with PBS b uffer. […]
After proper incubation time, reaction was stopped by addition of ice -cold ACN and the plates were sealed, shaken and centrifuged at 1800 x g and 4°C for 20 minutes. The supernatant was then subjected to LC/MS-MS analysis for residual drug quantitation using 250 nM tolbutamide and 250 nM labetalol as internal standards. Half-life (t1/2) and CLint (Intrinsic clearance) were calculated using standard pharmacokinetic calculations based on the decay of drug concentration over time. […]
incubation system was reliable for metabolic study. After incubation, the samples were analyzed by LC - UV-MS. […]
For orientation: Liver microsomes are vesicles of endoplasmic reticulum, rich in cytochrome P450 enzymes.

Another data set relates to utrophin. Set-up: method as in doi:10.1080/21678707.2018.1438261. The conditions noted are these: patients with DMD, cited from earlier work.
Where [5] appears, read: with α-naphthoflavone (ANF, CYP1A inhibitor) 3 μM, with 3 μM ANF (CYP1A inhibitor).
Where [6] appears, read: with α-naphthoflavone (ANF, CYP1A inhibitor) 3 μM, with 3 μM ANF.

Several values for one entry are separate records, joined by “and”; a condition that tells them apart may be missing. Equal entries are not always repeated. Where two headings read alike, the source gives them in different places. Some results are limits rather than exact numbers.

One may read the IC50 as the midpoint of a concentration-inhibition curve. Low values mean higher potency, high ones lower potency. For orientation: half-life means the time in which the quantity being followed falls by half. Higher therefore signals slow decline. Broadly, the kinetic solubility is the concentration staying in solution when a stock, usually in DMSO, is diluted into the medium. Regarding `CCS(=O)(=O)c1ccc2oc(C34Cc5ccccc5C(C3)C4)nc2c1` [50a], the half-inhibitory concentration (IC50) in data set [1] was determined as 19 ± 18 µM. Also, the “increase in metabolic half-life compared with ezutromid” value in data set [2] is given as ~ 2 fold. Besides, the half-life at 1 μM was determined as 94 ± 0.2 min in data set [2] (without ANF) and 108 ± 11 min in data set [2] (setting [5]). The microsomal CLint at 1 μM worked out at 14.7 ± 0.1 µL/min/mg in data set [2] (without ANF) and 12.8 ± 1.4 µL/min/mg in data set [2] (setting [6]). Besides, the kinetic solubility at 24 h in data set [3] was < 1.56 µM and < 0.552 µg/mL.
In data set [1], `CCS(=O)(=O)c1ccc2oc(-c3ccc4c(c3)CC3CC4C3)nc2c1` [50b] returned an IC50 of 2.12 ± 0.3 µM. Besides, the “half-life compared with ezutromid” value in data set [2] was “slight decrease”. The half-life at 1 μM in data set [2] (without ANF) came to 40 ± 7 min; in data set [2] (setting [5]) it was 42 ± 4 min. Further, the microsomal CLint at 1 μM in data set [2] (without ANF) was found to be 35.6 ± 7 µL/min/mg; in data set [2] (setting [6]), 33.6 ± 2.7 µL/min/mg. Further, in data set [4] (50b at 10 µM, human liver microsomes, NADPH, 37°C, 60 min), the “Relative Abundance (UV Peak Area %Total)” value came out at 66.02%. Besides, the predominant biotransformation entry in data set [4] (metabolic profiling of 50b) is on record as “mono-oxygenation of the BCHep moiety”. The solubility (kinetic) at 24 h in data set [3] was < 1.56 µM and < 0.552 µg/mL.
In data set [1], `CCS(=O)(=O)c1ccc2oc(-c3ccc4c(c3)C3CC(C4)C3)nc2c1` [50c] gave an IC50 of 13.1 ± 2 µM. Besides, the half-life at 1 μM in data set [2] (without ANF) was 48 ± 8 min; in data set [2] (setting [5]), 56 ± 10 min. The microsomal CLint at 1 μM in data set [2] (without ANF) was 29.9 ± 4.9 µL/min/mg; in data set [2] (setting [6]) it was 25.7 ± 4.6 µL/min/mg.
`CCS(=O)(=O)c1ccc2oc(-c3ccc4ccccc4c3)nc2c1` [Ezutromid, ezutromid, reference compound] had an IC50 in data set [1] of 0.27 µM. For the same compound, in data set [2] (without ANF), the half-life at 1 μM is 60 ± 5 min and the microsomal CLint at 1 μM was determined as 23.3 ± 2 µL/min/mg. In data set [2] (setting [5]), this compound displayed a half-life at 1 μM of 89 ± 6 min. Besides, the microsomal CLint at 1 μM in data set [2] (setting [6]) was 15.8 ± 1.1 µL/min/mg. For the same compound, in data set [3], the solubility (kinetic) at 24 h was < 1.56 µM and < 0.527 µg/mL. Also, the “primary or secondary end points” value in the data set with utrophin (after 48 weeks of treatment) is “failed to meet”. In addition, in the data set with utrophin (repeated dosing, 24-week data), the levels of utrophin result is on record as “increased” and the muscle fibre damage result is “statistically significant reduction”.
